Experiments:
[1] = biological target: T1, GST-RIPK2 fusion protein (human RIPK2, amino acids 1-310) (Homo sapiens, UniProt O43353); assay: RIPK2 binding competition assay (TR-FRET, Tracer 199 displacement); conditions: 10 nM Tracer 199, 1 nM GST-RIPK2, read-out: RIPK2 IC50
T1 construct: made in house; host or cells: baculovirus infected Sf9 cells
Method in brief: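 IC50 derived from the TR-FRET emission ratio (665/620 nm, 337 nm excitation), normalized with no-inhibitor and no-enzyme controls. Incubation 45 min at 22 °C, pH 7.5 Tris buffer, with final 10 nM tracer, 1 nM Sf9-expressed GST-RIPK2 fragment (aa 1-310) and 0.5 nM Tb-labelled anti-GST.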

[2] = tested on: NF-κB pathway (SEAP) in THP1-Dual cells; assay: THP-1 Dual cell SEAP assay (L18-MDP stimulated); assay type: cell-based; conditions: Homo sapiens, THP1-Dual, read-out: NF-κB THP1 IC50 bin
Method in brief: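 IC50 values derive from non-linear regression of % inhibition, calculated against DMSO/L18-MDP-treated wells after media-only subtraction. NF-κB SEAP activity was read at OD 620-655 nm (QUANTI-Blue, 2 h, 37 °C) from supernatants of THP1-Dual cells. Cells had been compound-treated 30 min before overnight (20-24 h) stimulation with 10 ng/mL final L18-MDP.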

[3] = biological target: T2, binding of His-XIAP(BIR2)-avi fusion protein to GST-RIPK2 fusion protein (RIPK2/XIAP) (Homo sapiens, UniProt O43353); assay: RIPK2-XIAP binding competition PPI assay (TR-FRET); conditions: RIPK2/XIAP binding competition PPI assay; for Emax: Amax, read-out: PPI Amax bin; for IC50: read-out: PPI IC50 bin
T2 construct: made in house; host or cells: baculovirus infected Sf9 cells
Method in brief: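 Compounds (in DMSO, 100-fold stock) incubated 120 min at 23 °C with 1 nM GST-RIPK2 (aa 1-310) and 25 nM His-XIAP(BIR2 aa 152-231)-avi, plus anti-His-XL665 and anti-GST-Tb, in pH 7.5 Tris buffer. Read-out: 665/520 nm emission ratio. Normalized to no-inhibitor (0%) and 50 nM GSK583 (−100%); Amax binned A–D.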

T1 sequence (O43353 1-310): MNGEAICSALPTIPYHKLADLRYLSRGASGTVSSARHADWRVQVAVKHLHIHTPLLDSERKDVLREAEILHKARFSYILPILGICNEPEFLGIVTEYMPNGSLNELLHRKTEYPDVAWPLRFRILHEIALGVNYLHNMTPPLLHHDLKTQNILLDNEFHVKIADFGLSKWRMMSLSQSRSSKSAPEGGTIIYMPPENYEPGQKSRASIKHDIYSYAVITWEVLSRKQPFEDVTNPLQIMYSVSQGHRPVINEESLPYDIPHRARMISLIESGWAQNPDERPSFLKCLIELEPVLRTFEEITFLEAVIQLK
T2 sequence (O43353 1-310 limits assumed): as the sequence (O43353 1-310) above

| SMILES | IC50 [1] | IC50 [2] | Emax [3] | IC50 [3] |
| --- | --- | --- | --- | --- |
| COc1cc2ncc(-c3cc(F)c(N)nc3F)n2cc1C1(OC)CCOCC1 [Example 76, 3,6-difluoro-5-(7-methoxy-6-(4-methoxytetrahydro-2H-pyran-4-yl)imidazo[1,2-a]pyridin-3-yl)pyridin-2-amine] | > 20 nM | > 1000 nM | > 80% | > 20 nM |
| COc1cc2ncc(-c3cc(F)c(N)nc3F)n2cc1S(=O)(=O)c1ccnn1C [Example 77, 3,6-difluoro-5-(7-methoxy-6-((1-methyl-1H-pyrazol-5-yl)sulfonyl)imidazo[1,2-a]pyridin-3-yl)pyridin-2-amine] | > 20 nM | > 1000 nM | > 80% | > 20 nM |
| COc1cc2ncc(-c3cc(F)c(N)nc3F)n2cc1S(=O)(=O)c1cn[nH]c1 [Example 78, 5-(6-((1H-pyrazol-4-yl)sulfonyl)-7-methoxyimidazo[1,2-a]pyridin-3-yl)-3,6-difluoropyridin-2-amine] | 2.5 to 20 nM | > 1000 nM | > 80% | 2.5 to 20 nM |
| COc1cc2ncc(-c3cc(F)c(N)nc3F)n2cc1P1(=O)CCN(C)CC1 [Example 79, 4-(3-(6-amino-2,5-difluoropyridin-3-yl)-7-methoxyimidazo[1,2-a]pyridin-6-yl)-1-methyl-1,4-azaphosphinane 4-oxide] | > 20 nM | > 1000 nM | > 80% | > 20 nM |
| COc1ccn2ncc(-c3cc(N)cc(F)c3)c2n1 [Example 80, 3-fluoro-5-(5-methoxypyrazolo[1,5-a]pyrimidin-3-yl)aniline] | > 20 nM | > 1000 nM | < 30% | > 20 nM |
| CCCS(=O)(=O)Nc1cc(-c2cnc3cc(OC)c(S(=O)(=O)C(C)(C)C)cn23)cc(-n2cccn2)c1 [Example 81, N-(3-(6-(tert-butylsulfonyl)-7-methoxyimidazo[1,2-a]pyridin-3-yl)-5-(1H-pyrazol-1-yl)phenyl)propane-1-sulfonamide] | 1 to 2.5 nM | 250 to 1000 nM | < 30% | > 20 nM |
| COc1cc2ncc(-c3cnc4c(c3)NCCO4)n2cc1S(=O)(=O)C(C)(C)C [Example 82, 7-(6-(tert-butylsulfonyl)-7-methoxyimidazo[1,2-a]pyridin-3-yl)-2,3-dihydro-1H-pyrido[2,3-b][1,4]oxazine] | > 20 nM | > 1000 nM | < 30% | > 20 nM |
| COc1cc2ncc(-c3cnc4c(c3)CC(=O)N4)n2cc1S(=O)(=O)C(C)(C)C [Example 83, 5-(6-(tert-butylsulfonyl)-7-methoxyimidazo[1,2-a]pyridin-3-yl)-1,3-dihydro-2H-pyrrolo[2,3-b]pyridin-2-one] | > 20 nM | > 1000 nM | < 30% | > 20 nM |
| COc1cc2ncc(-c3cnc4c(c3)OCCN4)n2cc1S(=O)(=O)C(C)(C)C [Example 84, 7-(6-(tert-butylsulfonyl)-7-methoxyimidazo[1,2-a]pyridin-3-yl)-3,4-dihydro-2H-pyrido[3,2-b][1,4]oxazine] | > 20 nM | > 1000 nM | 55 to 80% | > 20 nM |
| COc1cc2ncc(-c3cnc4c(c3)CCCN4)n2cc1S(=O)(=O)C(C)(C)C [Example 85, 6-(6-(tert-butylsulfonyl)-7-methoxyimidazo[1,2-a]pyridin-3-yl)-1,2,3,4-tetrahydro-1,8-naphthyridine] | > 20 nM | > 1000 nM | 30 to 55% | > 20 nM |
| COc1cc2ncc(-c3ccc4c(c3)OCC4O)n2cc1S(=O)(=O)C(C)(C)C (centres unmarked) [Example 86, 6-(6-(tert-butylsulfonyl)-7-methoxyimidazo[1,2-a]pyridin-3-yl)-2,3-dihydrobenzofuran-3-ol] | > 20 nM | > 1000 nM | < 30% | > 20 nM |
| COc1cc2ncc(-c3cnc4c(c3)OCC4O)n2cc1S(=O)(=O)C(C)(C)C (centres unmarked) [Example 87, 6-(6-(tert-butylsulfonyl)-7-methoxyimidazo[1,2-a]pyridin-3-yl)-2,3-dihydrofuro[3,2-b]pyridin-3-ol] | > 20 nM | > 1000 nM | 30 to 55% | > 20 nM |
| COc1cc2ncc(-c3cnn(-c4ccccc4)c3F)n2cc1S(=O)(=O)C(C)(C)C [Example 88, 6-(tert-butylsulfonyl)-3-(5-fluoro-1-phenyl-1H-pyrazol-4-yl)-7-methoxyimidazo[1,2-a]pyridine] | > 20 nM | > 1000 nM | < 30% | > 20 nM |
| COc1cc2ncc(-c3ccc4nc(N)ccc4c3)n2cc1S(=O)(=O)C(C)(C)C [Example 89, 6-(6-(tert-butylsulfonyl)-7-methoxyimidazo[1,2-a]pyridin-3-yl)quinolin-2-amine] | 2.5 to 20 nM | 250 to 1000 nM | < 30% | > 20 nM |
| COc1cc2ncc(-c3ccc4c(N)nccc4c3)n2cc1S(=O)(=O)C(C)(C)C [Example 90, 6-(6-(tert-butylsulfonyl)-7-methoxyimidazo[1,2-a]pyridin-3-yl)isoquinolin-1-amine] | 2.5 to 20 nM | 250 to 1000 nM | < 30% | > 20 nM |
| COc1cc2ncc(-c3cnc4nc(N)ccc4c3)n2cc1S(=O)(=O)C(C)(C)C [Example 91, 6-(6-(tert-butylsulfonyl)-7-methoxyimidazo[1,2-a]pyridin-3-yl)-1,8-naphthyridin-2-amine] | > 20 nM | > 1000 nM | 30 to 55% | > 20 nM |
| COc1cc2ncc(-c3cnc4cc(N)ccc4c3)n2cc1S(=O)(=O)C(C)(C)C [Example 92, 3-(6-(tert-butylsulfonyl)-7-methoxyimidazo[1,2-a]pyridin-3-yl)quinolin-7-amine] | > 20 nM | > 1000 nM | 30 to 55% | > 20 nM |
| COc1cc2ncc(-c3ccc4c(N)noc4c3)n2cc1S(=O)(=O)C(C)(C)C [Example 93, 6-(6-(tert-butylsulfonyl)-7-methoxyimidazo[1,2-a]pyridin-3-yl)benzo[d]isoxazol-3-amine] | 2.5 to 20 nM | 250 to 1000 nM | < 30% | > 20 nM |
| COc1cc2ncc(-c3ccn4nccc4c3)n2cc1S(=O)(=O)C(C)(C)C [Example 94, 6-(tert-butylsulfonyl)-7-methoxy-3-(pyrazolo[1,5-a]pyridin-5-yl)imidazo[1,2-a]pyridine] | 2.5 to 20 nM | 250 to 1000 nM | < 30% | > 20 nM |
| COc1cc2ncc(-c3ccc4nc(N)sc4c3)n2cc1S(=O)(=O)C(C)(C)C [Example 95, 6-(6-(tert-butylsulfonyl)-7-methoxyimidazo[1,2-a]pyridin-3-yl)benzo[d]thiazol-2-amine] | 2.5 to 20 nM | > 1000 nM | < 30% | > 20 nM |
| COc1cc2ncc(-c3ccc4nc(N)oc4c3)n2cc1S(=O)(=O)C(C)(C)C [Example 96, 6-(6-(tert-butylsulfonyl)-7-methoxyimidazo[1,2-a]pyridin-3-yl)benzo[d]oxazol-2-amine] | 2.5 to 20 nM | 250 to 1000 nM | < 30% | > 20 nM |
| COc1cc2ncc(-c3cc(C)c4nn(C)cc4c3)n2cc1S(=O)(=O)C(C)(C)C [Example 97, 5-(6-(tert-butylsulfonyl)-7-methoxyimidazo[1,2-a]pyridin-3-yl)-2,7-dimethyl-2H-indazole] | 2.5 to 20 nM | > 1000 nM | < 30% | > 20 nM |
| COc1cc2ncc(-c3ccc4nc(N)[nH]c4c3)n2cc1S(=O)(=O)C(C)(C)C [Example 98, 6-(6-(tert-butylsulfonyl)-7-methoxyimidazo[1,2-a]pyridin-3-yl)-1H-benzo[d]imidazol-2-amine] | 2.5 to 20 nM | > 1000 nM | < 30% | > 20 nM |
| COc1cc2ncc(-c3cn(C)c4ncccc34)n2cc1S(=O)(=O)C(C)(C)C [Example 99, 6-(tert-butylsulfonyl)-7-methoxy-3-(1-methyl-1H-pyrrolo[2,3-b]pyridin-3-yl)imidazo[1,2-a]pyridine] | 2.5 to 20 nM | > 1000 nM | < 30% | > 20 nM |
| COc1cc2ncc(-c3ccc4nc(N)n(C)c4c3)n2cc1S(=O)(=O)C(C)(C)C [Example 100, 6-(6-(tert-butylsulfonyl)-7-methoxyimidazo[1,2-a]pyridin-3-yl)-1-methyl-1H-benzo[d]imidazol-2-amine] | 2.5 to 20 nM | > 1000 nM | < 30% | > 20 nM |
| COc1cc2ncc(-c3ccc4c(c3)c(C)nn4C)n2cc1S(=O)(=O)C(C)(C)C [Example 101, 5-(6-(tert-butylsulfonyl)-7-methoxyimidazo[1,2-a]pyridin-3-yl)-1,3-dimethyl-1H-indazole] | 2.5 to 20 nM | > 1000 nM | < 30% | > 20 nM |

Reference: US20260137706A1, “METHODS OF TREATING INFLAMMATORY DISEASES” (INTERLINE THERAPEUTICS, INC., priority 2023, published 2026)
